Results on nine compounds are retold here after patent US20160281133A1, “STABILIZATION AND ISOLATION OF EXTRACELLULAR NUCLEIC ACIDS” (QIAGEN GMBH, priority 2013, published 2016).

Data set [1] relates to HeLa cell mitochondria. Conditions: at 5 μM; cited from earlier work.
The conditions of data set [2]: in neuron culture medium at 37° C.; cited from earlier work.
The target of data set [3] is T1, caspase-1 (Homo sapiens, UniProt P29466).
T1 sequence (P29466 120-297 limits assumed): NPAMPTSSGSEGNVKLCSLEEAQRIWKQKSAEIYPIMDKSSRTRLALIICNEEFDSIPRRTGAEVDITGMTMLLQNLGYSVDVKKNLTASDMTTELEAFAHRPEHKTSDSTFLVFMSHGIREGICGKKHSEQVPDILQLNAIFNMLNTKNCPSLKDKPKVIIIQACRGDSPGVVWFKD
T1 sequence (P29466 317-404 limits assumed): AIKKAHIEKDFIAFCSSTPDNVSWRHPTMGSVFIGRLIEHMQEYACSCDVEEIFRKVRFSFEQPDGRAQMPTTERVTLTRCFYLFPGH
The settings on record: cited from earlier work.

Data set [4] deals with whole blood samples. Kind of data set: 18S DNA duplex real time PCR assay, increase of DNA in plasma of stored blood, example 5. It counts as cell-based, human. The settings on record: 20 μM caspase inhibitor in whole blood; storage at RT. (In general: Real-time PCR tracks product formation cycle by cycle.)
Data set [5] deals with whole blood samples. Kind of data set: DNA size distribution by chip gel electrophoresis (blood cell stability/DNA release). Conditions: 20 μM in 10 ml K2E blood; day 3 and day 7. It counts as cell-based, human. On the procedure: To separate the blood plasma from the whole blood, the blood samples were centrifuged for 15 min at 5000 rpm, and the obtained plasma samples were again centrifuged for 10 min at 16.000×g at 4° C.
The circulating, extracellular nucleic acids were purified from the obtained plasma samples using the QIAamp® Circulating NA Kit (QIAGEN, according to the handbook). In brief: • 10 ml sample input; • lysis: 1 ml Proteinase K and 8 ml Buffer ACL (QIAGEN) • binding: 18 ml Buffer ACB (QIAGEN) • wash-steps: unchanged and according to handbook • elution in 60 μl Buffer AVE (QIAGEN)
1.3.1 Measurement of the blood cell stability/DNA release by the determination of DNA size distribution using a chip gel electrophoresis (2100 Bioanalyzer; Agilent Technologies; Inc., USA) according to manufacturer's instruction (see handbook Agilent DNA 7500 and DNA 12000 Kit Guide), but 1.5 μl instead of 1 μl sample were transferred to the wells.
Each tested caspase inhibitor was added to whole blood samples (20 μM end concentration in 10 ml blood; blood was collected into Vacutainer K2E Tubes; BD). The whole blood sample was processed as described in section 1 (plasma preparation and nucleic acid isolation).
The eluted circulating cell-free DNA was separated by size using chip gel electrophoresis (for details on the method see above). […]

Data set [6] relates to cells. The settings on record: even at extremely high concentrations; cited from earlier work.
Data set [7] concerns white blood cells. Kind of data set: 18S rDNA qPCR (66 bp / 500 bp): release of genomic DNA into plasma of stored stabilized blood, examples 1-4. The format is cell-based, human. The protocol:
Blood from two different donors was collected into 10 ml K2 EDTA tubes (BD). 4.5 ml of the respectively collected blood was mixed with 0.9 ml of two different stabilization solutions A and B. Said stabilization solutions contained (per ml of stabilization solution):
A: 34.2 mg K2 EDTA and 0.15 g or 0.18 g butanamide in water When using stabilization solution A, the following final concentration in the blood/stabilization mixture was obtained: 7.2 mg K2 EDTA/ml and 2.5% (w/v) or 3% (w/v) butanamide. […] When using stabilization solution B, the following final concentration in the blood/stabilization mixture was obtained: 7.2 mg K2 EDTA/ml, 3% (w/v) butanamide and 1 μM Quinoline-Val-Asp-CH2-OPH (caspase inhibitor).
All stabilized blood samples were set up in triplicates per condition and test time point. At time point 0 (reference), immediately after mixing the stabilization solution and blood, plasma was generated and the circulating extracellular DNA was extracted. The residual stabilized blood sample was stored for three days and six days at room temperature.
Plasma was generated from the stabilized and unstabilized (EDTA) blood samples by inverting the blood containing tubes for four times. Then, the tubes were centrifuged for 10 minutes at 1900×g at 4° C. 2.5 ml of the plasma fraction was transferred into a fresh 15 ml falcon tube and centrifuged for 10 minutes at 16.000×g at 4° C. 2 ml of the respectively cleared plasma was used for extracellular nucleic acid isolation using the QIAamp circulating nucleic acid kit (QIAGEN) according to the manufacturer's instructions.
The isolated extracellular DNA was analyzed using two different qPCR assays, targeting different fragment lengths of the 18S ribosomal DNA:
18S ribosomal DNA: 66 bp amplicon 18S ribosomal DNA: 500 bp amplicon
Cycle threshholds of the individual samples were translated into amount of gDNA in the eluate, according to a gDNA standard curve. The gDNA amount of the storage time points was compared to the time zero gDNA level from the same donor and is shown as fold increase in the figures. […]

The target of data set [8] is T2, calpain II (Homo sapiens, UniProt P17655).
T2 sequence (P17655 1-700): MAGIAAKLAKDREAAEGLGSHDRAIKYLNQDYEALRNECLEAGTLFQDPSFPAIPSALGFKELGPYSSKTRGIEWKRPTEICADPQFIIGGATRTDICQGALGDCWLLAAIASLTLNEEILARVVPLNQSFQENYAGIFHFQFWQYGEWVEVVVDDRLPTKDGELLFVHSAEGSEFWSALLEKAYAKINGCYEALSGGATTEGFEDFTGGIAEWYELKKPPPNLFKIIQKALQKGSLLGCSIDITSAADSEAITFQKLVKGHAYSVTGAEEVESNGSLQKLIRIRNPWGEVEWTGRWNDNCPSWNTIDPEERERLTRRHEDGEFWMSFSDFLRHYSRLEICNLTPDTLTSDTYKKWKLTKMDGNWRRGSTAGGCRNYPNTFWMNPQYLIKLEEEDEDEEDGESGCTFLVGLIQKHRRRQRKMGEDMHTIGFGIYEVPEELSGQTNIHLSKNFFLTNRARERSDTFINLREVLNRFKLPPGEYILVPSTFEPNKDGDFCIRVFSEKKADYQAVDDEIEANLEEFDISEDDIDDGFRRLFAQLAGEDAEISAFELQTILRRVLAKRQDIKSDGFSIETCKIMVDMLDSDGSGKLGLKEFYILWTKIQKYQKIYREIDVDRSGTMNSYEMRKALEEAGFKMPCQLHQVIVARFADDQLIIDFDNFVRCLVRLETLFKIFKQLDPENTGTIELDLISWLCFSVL
T2 sequence (P04632 1-268 partner): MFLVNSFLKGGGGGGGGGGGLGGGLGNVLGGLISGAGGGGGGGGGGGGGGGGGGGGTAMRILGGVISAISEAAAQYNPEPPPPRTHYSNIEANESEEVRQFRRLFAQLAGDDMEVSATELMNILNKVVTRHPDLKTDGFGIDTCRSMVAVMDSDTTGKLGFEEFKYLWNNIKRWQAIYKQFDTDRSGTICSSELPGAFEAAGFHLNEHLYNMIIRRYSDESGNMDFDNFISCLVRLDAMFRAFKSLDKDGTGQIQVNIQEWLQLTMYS
The settings on record: cited from earlier work.

The target in data set [9] is cathepsin L (Homo sapiens, UniProt P07711). Conditions: cited from earlier work.
cathepsin L, sequence (P07711 114-333, species assumed): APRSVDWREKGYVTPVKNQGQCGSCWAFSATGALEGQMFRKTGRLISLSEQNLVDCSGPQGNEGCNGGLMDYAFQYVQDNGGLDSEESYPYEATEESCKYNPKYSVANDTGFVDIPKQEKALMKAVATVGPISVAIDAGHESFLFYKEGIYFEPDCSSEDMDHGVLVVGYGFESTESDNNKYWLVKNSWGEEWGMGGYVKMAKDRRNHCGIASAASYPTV
In data set [10] the target is T3, caspase-3 (Homo sapiens, UniProt P42574).
T3 sequence (P42574 29-175 limits assumed): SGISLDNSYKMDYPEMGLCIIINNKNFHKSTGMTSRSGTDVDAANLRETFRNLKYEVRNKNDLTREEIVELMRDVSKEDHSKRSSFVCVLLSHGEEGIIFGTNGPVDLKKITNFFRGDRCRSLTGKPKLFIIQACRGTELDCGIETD
T3 sequence (P42574 176-277 limits assumed): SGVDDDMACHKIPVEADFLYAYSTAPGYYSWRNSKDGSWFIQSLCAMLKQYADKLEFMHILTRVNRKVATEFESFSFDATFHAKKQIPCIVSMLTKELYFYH
The settings on record: cited from earlier work.

pKi: −log10 of the molar value. Counter-ions that a name gives are not always drawn. Where a SMILES comes first, the peptide text is derived from it. The star is where a group is joined. Cbz = O=C(OCc1ccccc1)*

Turning to `OC(CN1CCNCC1)Cn1c2ccc(Br)cc2c2cc(Br)ccc21` (racemic) [Bax Channel Blocker, (±)-1-(3,6-Dibromocarbazol-9-yl)-3-piperazin-1-yl-propan-2-ol, bis TFA], the “inhibition of Bid-induced cytochrome c release” value in data set [1] was “cyctochrome c release from HeLa cell mitochondria (~80%”.

`N=c1sc2c(n1CC(=O)c1ccc([N+](=O)[O-])cc1)CCCC2` [Pifithrin-α, p-Nitro]: the t½ entry in data set [2] is reported as “biological systems (t½ = 8 h in neuron culture medium at 37° C.)”.

In the case of “Ac-Tyr-Val-Ala-Asp-CMK [Caspase-1 Inhibitor II]”, the pKi (as a rule, −log10 of the Ki, conventionally taken in molar units) in data set [3] is 9.12. As for `CC(C)C(NC(=O)c1ccc2ccccc2n1)C(=O)NC(CC(=O)O)C(=O)COc1c(F)cccc1F` (stereo not drawn) [Q-VD-OPh, Quinoline-Val-Asp-CH2-OPH], the “increase of DNA from day 0 to day 3 or 7” value in data set [4] is “reduced increase of DNA”. Besides, the “ladder-like pattern of bands (release and fragmentation of genomic DNA) compared to controls” value in data set [5] is recorded as “significantly reduced ladder-like patterns”. The toxicity to cells entry in data set [6] is given as “not toxic to cells”. In the case of `CCCC(N)=O` [butanamide], the “stabilization capabilities compared to DMAA” value in data set [7] (Example 2, 2.5, 3, 3.5% (w/v) butanamide with 1 μM caspase inhibitor and EDTA vs 5% DMAA) is “at least comparable stabilization capabilities to DMAA”. Also, in [7] (Example 3, 0.5, 1.5, 2% butanamide in combination with 2.5, 1.5, 1% DMPA, 1 μM caspase inhibitor, EDTA), the “stabilization capabilities compared to the stabilization solution comprising DMAA” value was “comparable stabilization capabilities”. In data set [7] (Example 4, 0.5, 1.5, 2.5% (w/v) butanamide with 1 μM caspase inhibitor and 7.2 mg K2EDTA/ml), the “increase in 18S rDNA” value is on record as “significantly reduced increase in 18S rDNA”. With `CC(C)C[C@H](NC(=O)OCc1ccccc1)C(=O)N[C@@H](CC(C)C)C(=O)N[C@@H](Cc1ccc(O)cc1)C(=O)CF` [Calpain Inhibitor IV, Z-Leu-Leu-Tyr-CH2F] (HELM PEPTIDE1{[O=C(OCc1ccccc1)[*:2]].L.L.Y.[FC[*:1]]}$$$$V2.0), the k2 in [8] (irreversible inhibitor) is 28,900 M−1s−1). Also acts as an inhibitor of cathepsin L (k2 =; in [9], 680,000 M−1s−1).

Take “Ac-Ala-Ala-Val-Ala-Leu-Leu-Pro-Ala-Val-Leu-Leu-Ala-Leu-Leu-Ala-Pro-Asp-Glu-Val-Asp-CHO (Ac-AAVALLPAVLLALLAPDEVD-aldehyde; SMILES CC(=O)N[C@@H](C)C(=O)N[C@@H](C)C(=O)N[C@H](C(=O)N[C@@H](C)C(=O)N[C@@H](CC(C)C)C(=O)N[C@@H](CC(C)C)C(=O)N1CCC[C@H]1C(=O)N[C@@H](C)C(=O)N[C@H](C(=O)N[C@@H](CC(C)C)C(=O)N[C@@H](CC(C)C)C(=O)N[C@@H](C)C(=O)N[C@@H](CC(C)C)C(=O)N[C@@H](CC(C)C)C(=O)N[C@@H](C)C(=O)N1CCC[C@H]1C(=O)N[C@@H](CC(=O)O)C(=O)N[C@@H](CCC(=O)O)C(=O)N[C@H](C(=O)N[C@H](C=O)CC(=O)O)C(C)C)C(C)C)C(C)C) [Caspase-3 Inhibitor I, Cell-Permeable]”: in [10], the pKi is > 9.00. In the case of “Ac-Ala-Ala-Val-Ala-Leu-Leu-Pro-Ala-Val-Leu-Leu-Ala-Leu-Leu-Ala-Pro-Tyr-Val-Ala-Asp-CHO (Ac-AAVALLPAVLLALLAPYVAD-aldehyde; SMILES CC(=O)N[C@@H](C)C(=O)N[C@@H](C)C(=O)N[C@H](C(=O)N[C@@H](C)C(=O)N[C@@H](CC(C)C)C(=O)N[C@@H](CC(C)C)C(=O)N1CCC[C@H]1C(=O)N[C@@H](C)C(=O)N[C@H](C(=O)N[C@@H](CC(C)C)C(=O)N[C@@H](CC(C)C)C(=O)N[C@@H](C)C(=O)N[C@@H](CC(C)C)C(=O)N[C@@H](CC(C)C)C(=O)N[C@@H](C)C(=O)N1CCC[C@H]1C(=O)N[C@@H](Cc1ccc(O)cc1)C(=O)N[C@H](C(=O)N[C@@H](C)C(=O)N[C@H](C=O)CC(=O)O)C(C)C)C(C)C)C(C)C) [Caspase-1 Inhibitor I, Cell-Permeable]”, in [3], the pKi was 9.00. With `CC(C)C(NC(=O)OCc1ccccc1)C(=O)NC(C=O)Cc1ccccc1` (stereo not drawn) [Calpain Inhibitor III, Z-Val-Phe-CHO] (Cbz-Val-Phe-aldehyde; configuration not given here), in data set [8], the pKi is 8.10.
